Test results from patent US20240116885A1, “BENZOTHIAZOLE AND QUINOLINE DERIVATIVES AND THEIR USE” (Shanghai Yao Yuan Biotechnology Co., Ltd., priority 2020, published 2024).
Structures can show the parent of a compound that is named as a salt.

How the values were obtained:
ALPK1 = ALPK1 (Homo sapiens (Human), UniProt Q96QP1); test: ALPK1 in vitro kinase assay (HTRF, TIFA phosphorylation); assay type: biochemical; conditions: ADP-Heptose activated ALPK1
Protocol: ALPK1 kinase activity was measured in an in vitro assay using ADP-Heptose as the ALPK1 ligand and activator of its kinase activity and TIFA protein as the ALPK1 phosphorylation substrate. Since phosphorylated TIFA proteins oligomerize, Homogeneous Time-Resolved Fluorescence (HTRF) was used to measure protein:protein interaction between HA-tagged TIFA proteins as an indicator of TIFA phosphorylation.
In brief, dose-response studies were performed with HEK293 cells cultured in Dulbecco's Modified Eagle Medium (DMEM) supplemented 10% fetal bovine serum (FBS, Hyclone™) containing antibiotics (pen/strep, G418) in 384-well assay plates. Each well contained 0.1 mg TIFA, ALPK1 (2 nM final concentration in reaction mixture) and kinase buffer (100 mM of HEPES pH 7.4, 4 mM DTT, 40 mM MgCl2, 20 mM of β-Glycerol phosphate disodium salt, 0.4 mM of Na3VO4, 0.16 mg/mL). Titrations of the test compounds were prepared in dimethylsulphoxide (DMSO). The reaction was initiated by addition of ATP and ADP-Heptose.
For HTRF, samples were incubated with a Tb cryptate-labeled anti-HA antibody for capturing HA-tagged proteins according to the manufacturer's instructions (PerkinElmer™, CisBio™) and the fluorescence signal was quantified (Tecan Infinite F NANO+). HTRF signals were calculated as the HTRF ratio (ratio of fluorescence measured at 665 nm and 620 nm)×104 (thereby using the signal at 620 nm as an internal standard).
IC50 values were determined using 3- or 4-parameter logistic equation using GraphPad Prism version 6.00. The reference compound, A027, was used as a positive control for each plate.

[1] = test system: Female MRL/MpJ-faslpr/J mice; test: Efficacy study in SLE animal model; assay type: in vivo, mouse; conditions: 50 mg/kg PO QD
Protocol: A mouse model of systemic lupus erythematosus (SLE) was used to evaluate the ability of ALPK1 inhibitors to treat this condition. Female MRL/MpJ-faslpr/J mice were treated with test compound (T007) for 9 weeks. At about 13 weeks of age (study day 0), female mice were randomized into two treatment groups of 10 mice per group, and daily (QD) oral (PO) treatment with vehicle (5% PEG400, 95% methylcellulose [MC]) or the test compound, T007 (50 mg/kg) was initiated. The animals were euthanized for necropsy and tissue collection at age 22 weeks.

[2] = test system: ALPK1-dependent NFκB reporter gene activation; test: NFκB gene reporter alkaline phosphatase assay in HEK293 G9 cells; assay type: cell-based; conditions: Homo sapiens; HEK293 G9 cells stimulated with D-glycero-D-manno-6-fluoro-heptose-1β-S-ADP
Protocol: An alkaline phosphatase reporter assay system was used to measure inhibition of ALPK1-dependent NFκB reporter gene activation. Briefly, HEK293 cells stably expressing an NF-kB reporter (referred to herein as “G9 cells”) were maintained in DMEM as described above. For the assay, cells were seeded into 96-well plates at a density of 10,000 cells/well in Freestyle™ 293 Expression Medium (ThermoFisher), and allowed to attach overnight. Cells were pretreated with serially diluted compounds for 30 min and then stimulated with D-glycero-D-manno-6-fluoro-heptose-1β-S-ADP. […] NFkB gene activation was detected using the chromogenic substrate, para-nitrophenyl phosphate (pNPP) according to the manufacturer's protocols (pNPP Phosphatase Assay, Beyotime Biotechnology).

SD rat = test: Efficacy study in sepsis induced acute kidney injury animal model (cecal ligation and puncture); assay type: in vivo; conditions: 20 mg/kg 2 hours prior to surgery, 24 hours post-surgery
Source text: Polymicrobial sepsis induced by cecal ligation and puncture (CLP) is the most frequently used model because it closely resembles the progression and characteristics of human sepsis. We used this model system to evaluate the effects of the compound T007 in sepsis. Briefly, the SD rat cecum was ligated with sterile silk thread, and then cecum was punctured twice with a needle, gently squeezed to express a small amount of fecal material, then the abdominal incision was closed. The test compound, T007 (20 mg/kg) was administered 2 hours prior to the surgery. 24 hours post-surgery, survival was recorded, plasma was collected for MCP-1 analysis, and kidneys were collected for gene expression analysis by Q-PCR.

T237M hALPK1 mutant = T237M hALPK1 mutant (Homo sapiens (Human), UniProt Q96QP1, T237M); test: Inhibition of IL-8 secretion in HEK293 cells (A2) stably expressing T237M hALPK1 mutant; assay type: cell-based; conditions: 40 hours with compound, IL-8 ELISA, relative to wild-type HEK293 cells, read-out: Half maximal inhibitory concentration (IC50) of IL-8 secretion in cells expressing T237M mutant
Source text: (§1) Activating mutations in ALPK1 are associated with diseases and disorders such as cancer, spiroandenoma, spiroandenocarcinoma, ROSAH syndrome, and PFAPA syndrome. We conducted further experiments to evaluate the ability of representative compounds to inhibit ALPK1 in the context of two activating mutations, T237M and V1092A. In preliminary experiments we determined that IL-8 protein secretion was elevated in cells transiently transfected with human ALPK1 expression vectors containing each of these activating mutations. Accordingly, we used IL-8 secretion as an indicator of activated ALPK1 inhibition in cells expressing these mutations.
(§2) HEK293 cells were cultured as described above prior to transient transfection with either empty vector or an expression vector encoding (i) human ALPK1 (hALPK1), (ii) hALPK1 with the T237M activating mutation (hALPK1-T237M) (iii) hALPK1 with the V1092A activating mutation (hALPK1-V1092A), or (iv) a kinase dead ALPK1 mutant (hALPK1-T237M-D1194S). Transfection was performed according to manufacturer's protocols (Lipofectamine™ 3000, ThermoFisher). Transfected cells were selected, seeded onto 96-well plates and treated with serial dilutions of the test compounds for 6.5 hr. Following treatment, cell viability was determined using a luminescent cell viability assay (Cell Counting-Lite Assay or “CCL Assay” from Vazyme Biotech Co., Ltd.) and cell free supernatants were collected and analyzed for IL-8 protein by IL-8 ELISA as described above. […] As shown in the figure, very little IL-8 was detectable in cells transfected with any of the empty vector, hALPK1, or the kinase dead hALPK1 mutant. In contrast, both of the activating mutations in hALPK1 induced significant IL-8 secretion.
Next, we tested a representative set of compounds for inhibition of IL-8 secretion in cells expressing each of the activating ALPK1 mutants, T237M and V1092A. […] For the T237M mutant study, we produced an HEK293 cell line (“A2”) stably expressing the T237M hALPK1 mutant. A2 cells were cultured in the presence of test compound for 40 hours total. Fresh medium and compound were added at 24 hours. Cell viability and IL-8 secretion were determined 16 hours after the second addition of compound, using the CCL assay and IL-8 ELISA as described above.

hALPK1-V1092A = hALPK1-V1092A (Homo sapiens (Human), UniProt Q96QP1, V1092A); test: Inhibition of IL-8 secretion in HEK293 cells transiently transfected with hALPK1-V1092A; assay type: cell-based; conditions: transient transfection, 24 hours with compound, IL-8 ELISA, relative to wild-type HEK293 cells; read-out: Half maximal inhibitory concentration (IC50) of IL-8 secretion in cells expressing V1092A mutant
Source text: as §1, §2
For the V1092A mutant study shown in Table 4, HEK293 cells were transiently transfected with hALPK1-V1092A or hALPK1 (wildtype) expression vectors and then treated with test compounds for 24 hours. Fresh medium and compound were added at 18 hours.

[3] = kidney histopathology (right kidneys), vs vehicle

Sequence of ALPK1 (Q96QP1 whole entry): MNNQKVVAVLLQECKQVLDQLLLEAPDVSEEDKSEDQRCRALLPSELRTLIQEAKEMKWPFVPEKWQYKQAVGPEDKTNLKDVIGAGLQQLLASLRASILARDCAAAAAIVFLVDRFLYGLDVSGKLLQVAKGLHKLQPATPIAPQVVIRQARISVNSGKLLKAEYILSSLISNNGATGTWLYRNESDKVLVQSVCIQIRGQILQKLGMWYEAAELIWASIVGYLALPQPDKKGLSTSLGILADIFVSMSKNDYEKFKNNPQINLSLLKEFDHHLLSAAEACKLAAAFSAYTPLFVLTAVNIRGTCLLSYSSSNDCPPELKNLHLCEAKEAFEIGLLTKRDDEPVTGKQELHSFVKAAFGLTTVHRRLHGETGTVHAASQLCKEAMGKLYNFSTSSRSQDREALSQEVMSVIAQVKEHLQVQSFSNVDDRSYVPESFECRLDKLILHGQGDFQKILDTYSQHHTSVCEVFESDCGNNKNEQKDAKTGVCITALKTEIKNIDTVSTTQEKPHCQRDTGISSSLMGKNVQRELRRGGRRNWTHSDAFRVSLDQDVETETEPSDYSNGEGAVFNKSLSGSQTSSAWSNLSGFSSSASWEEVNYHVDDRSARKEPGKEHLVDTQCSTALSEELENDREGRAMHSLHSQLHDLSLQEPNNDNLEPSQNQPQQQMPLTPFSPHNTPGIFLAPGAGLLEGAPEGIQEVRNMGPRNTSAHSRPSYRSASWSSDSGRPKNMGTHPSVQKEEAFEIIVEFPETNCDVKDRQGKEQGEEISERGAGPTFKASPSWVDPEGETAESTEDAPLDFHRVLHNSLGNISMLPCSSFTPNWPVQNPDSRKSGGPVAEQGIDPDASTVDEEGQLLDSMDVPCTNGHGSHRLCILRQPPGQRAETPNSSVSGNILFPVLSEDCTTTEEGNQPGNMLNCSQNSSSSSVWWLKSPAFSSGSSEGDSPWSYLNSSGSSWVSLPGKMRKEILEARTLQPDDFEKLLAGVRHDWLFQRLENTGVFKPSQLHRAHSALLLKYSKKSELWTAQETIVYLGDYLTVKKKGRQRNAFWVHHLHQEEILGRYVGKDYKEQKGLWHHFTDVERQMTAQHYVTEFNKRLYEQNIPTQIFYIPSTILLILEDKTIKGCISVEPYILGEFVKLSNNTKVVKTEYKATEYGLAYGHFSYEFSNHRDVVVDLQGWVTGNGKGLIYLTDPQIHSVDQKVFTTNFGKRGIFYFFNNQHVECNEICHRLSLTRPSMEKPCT
Sequence of hALPK1-V1092A (Q96QP1 whole entry V1092A): as the sequence (Q96QP1 whole entry) above, with V1092A counted along it
Sequence of T237M hALPK1 mutant (Q96QP1 whole entry T237M): as the sequence (Q96QP1 whole entry) above, with T237M counted along it

C#Cc1cccc2sc(NC(=O)c3c(F)cc(N4CCNCC4)cc3F)nc12 [Compound T007, N-(4-ethynylbenzo[d]thiazol-2-yl)-2,6-difluoro-4-(piperazin-1-yl)benzamide]
IC50 (ALPK1): 4 nM
Effects on SLE by proteinuria, serum anti-dsDNA antibody levels and kidney histopathology ([1]; age 13 to 22 weeks): statistically significant beneficial effects
Urine protein score reduction in AUC ([1]; age 13 to 22 weeks, vs vehicle, p=0.100): 34%
Crescent scores reduction [1, 3]: 62%
Glomerulus diameters reduction [1, 3]: 38%
Protein cast scores reduction [1, 3]: 70%
Urine protein scores reduction ([1]; mouse age 21 weeks, vs vehicle): 55%
Summed kidney scores reduction ([1]; vs vehicle): 34%
IC50 [2]: 470 nM
Survival rate (SD rat): improved the survival rate
Plasma MCP-1 concentration by ELISA (SD rat; p<0.001 vs CLP-Vehicle): improved
Kidney proinflammatory gene expression (IL6, TNFa, IL-1b, CCl2, KC) by Q-PCR (SD rat; p<0.05 vs CLP-Vehicle): inhibited
IC50 (T237M hALPK1 mutant): 68.3 nM
IC50 (hALPK1-V1092A): 409 nM

COc1cccc2sc(NC(=O)c3c(F)cc(N4CCNCC4)cc3F)nc12 [Compound T017, 2,6-difluoro-N-(4-methoxybenzo[d]thiazol-2-yl)-4-(piperazin-1-yl)benzamide hydrochloride]
IC50 (ALPK1): 14 nM
IC50 [2]: 690 nM
IC50 (T237M hALPK1 mutant): 1470 nM
IC50 (hALPK1-V1092A): 5030 nM

O=C(Nc1nc2c(Br)cccc2s1)c1c(F)cc(N2CCNCC2)cc1F [Compound T019, N-(4-bromobenzo[d]thiazol-2-yl)-2,6-difluoro-4-(piperazin-1-yl)benzamide hydrochloride]
IC50 (ALPK1): 11 nM
IC50 [2]: 760 nM
IC50 (T237M hALPK1 mutant): 668 nM
IC50 (hALPK1-V1092A): 3170 nM

C#Cc1cccc2sc(NC(=O)c3c(F)cc(N4CCN(C)CC4)cc3F)nc12 [Compound T047, N-(4-ethynylbenzo[d]thiazol-2-yl)-2,6-difluoro-4-(4-methylpiperazin-1-yl)benzamide]
IC50 (ALPK1): 13 nM
IC50 [2]: 810 nM
IC50 (T237M hALPK1 mutant): 635 nM
IC50 (hALPK1-V1092A): 1810 nM

C#Cc1cccc2sc(NC(=O)c3c(F)cc(N4CCNC[C@@H]4C)cc3F)nc12 [Compound T054, (S)-N-(4-ethynylbenzo[d]thiazol-2-yl)-2,6-difluoro-4-(2-methylpiperazin-1-yl)benzamide]
IC50 (ALPK1): 36 nM
IC50 [2]: 270 nM
IC50 (T237M hALPK1 mutant): 225 nM
IC50 (hALPK1-V1092A): 226 nM

C#Cc1cccc2sc(NC(=O)c3c(F)ccc(N4CCNCC4)c3F)nc12 [Compound T060, N-(4-ethynylbenzo[d]thiazol-2-yl)-2,6-difluoro-3-(piperazin-1-yl)benzamide]
IC50 (ALPK1): 44 nM
IC50 [2]: 1250 nM
IC50 (T237M hALPK1 mutant): 2140 nM
IC50 (hALPK1-V1092A): 5380 nM

C#Cc1cc(F)cc2sc(NC(=O)c3c(F)ccc(N4CCNCC4)c3F)nc12 [Compound T064, N-(4-ethynyl-6-fluorobenzo[d]thiazol-2-yl)-2,6-difluoro-3-(piperazin-1-yl)benzamide]
IC50 (ALPK1): 51 nM
IC50 [2]: 1030 nM
IC50 (T237M hALPK1 mutant): 1690 nM
